Reference: patent US20030060472A1, “Novel substituted nitrocatechols, their use in the treatment of some central and peripheral nervous system disorders and pharmaceutical compositions containing them” (priority 2001, published 2003)

Columns and labels:
[1] = test system: Brain COMT; experiment: Ex vivo COMT activity in mice brain homogenates after administration by gastric tube; conditions: for Brain COMT (% of control) 1 h / Brain COMT (% of control) 6 h: mice brain homogenates, means ± S.E.M. of 4-8; for Brain COMT (% of control) 1 h: 1 h after administration by gastric tube; for Brain COMT (% of control) 6 h: 6 h after administration by gastric tube; for Duration of COMT inhibition and activity in the brain: conclusion from the mice study
[2] = test system: Liver COMT; experiment: Ex vivo COMT activity in mice liver homogenates after administration by gastric tube; conditions: for Potency upon liver COMT compared with brain COMT: mice, after oral administration; for Liver COMT (% of control) 1 h / Liver COMT (% of control) 6 h: mice liver homogenates, means ± S.E.M. of 4-8; for Liver COMT (% of control) 1 h: 1 h after administration by gastric tube; for Liver COMT (% of control) 6 h: 6 h after administration by gastric tube
[3] = biological target: T1, COMT (Homo sapiens, UniProt P21964); experiment: COMT activity (O-methylation of adrenaline to metanephrine) in intact SK-N-SH cells; assay type: cell-based; conditions: test compound 100 nM, means ± SEM, n = 4-8
T1 construct: O-methylationof adrenaline in intact SK-N-SH cells; host or cells: SK-N-SH cells
T1 sequence (P21964 1-271): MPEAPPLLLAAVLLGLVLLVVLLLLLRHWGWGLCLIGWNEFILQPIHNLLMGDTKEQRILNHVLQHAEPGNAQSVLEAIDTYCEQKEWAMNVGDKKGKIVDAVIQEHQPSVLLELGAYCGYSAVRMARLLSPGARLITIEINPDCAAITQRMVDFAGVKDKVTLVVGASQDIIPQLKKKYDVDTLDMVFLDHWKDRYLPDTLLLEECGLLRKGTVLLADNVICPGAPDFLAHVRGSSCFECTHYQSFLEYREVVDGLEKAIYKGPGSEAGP

Cl.O=C(CN1CCCCCC1)c1cc(O)c(O)c([N+](=O)[O-])c1 [Compound 1, 2-Azepan-1-yl-1-(3,4-dihydroxy-5-nitro-phenyl)-ethanone hydrochloride]
Brain COMT (% of control) 1 h [1]: 45.0 ± 15.0 % of control
Brain COMT (% of control) 6 h [1]: 102.0 ± 19.0 % of control

Cl.Cl.O=C(CCN1CCN(c2cccc(C(F)(F)F)c2)CC1)c1cc(O)c(O)c([N+](=O)[O-])c1 [Compound 18, 1-(3,4-Dihydroxy-5-nitro-phenyl)-3-[4-(3-trifluoromethyl-phenyl)-piperazin-1-yl]-propan-1-one dihydrochloride]
Duration of COMT inhibition and activity in the brain [1]: long acting COMT inhibitor with limited activity in the brain
Potency upon liver COMT compared with brain COMT [2]: much more potent upon liver COMT than brain COMT

CC1CCCCN1CC(=O)c1cc(O)c(O)c([N+](=O)[O-])c1.Cl (stereo not shown) [Compound 6, 1-(3,4-Dihydroxy-5-nitro-phenyl)-2-(2-methyl-piperidin-1-yl)-ethanone hydrochloride]
Brain COMT (% of control) 1 h [1]: 37.0 ± 3.3 % of control
Brain COMT (% of control) 6 h [1]: 66.0 ± 2.6 % of control

Cl.O=C(CCN1CCCCCCC1)c1cc(O)c(O)c([N+](=O)[O-])c1 [Compound 16, 3-Azocan-1-yl-1-(3,4-dihydroxy-5-nitro-phenyl)-propan-1-one hydrochloride]
Potency upon liver COMT compared with brain COMT [2]: equally potent in inhibiting liver and brain COMT activity

CC1CN(CC(=O)c2cc(O)c(O)c([N+](=O)[O-])c2)CC(C)O1.Cl (stereo not shown) [Compound 11, 1-(3,4-Dihydroxy-5-nitro-phenyl)-2-(2,6-dimethyl-morpholin-4-yl)-ethanone hydrochloride]
Brain COMT (% of control) 1 h [1]: 80.0 ± 5.0 % of control
Brain COMT (% of control) 6 h [1]: 103.0 ± 7.0 % of control

Cl.O=C(CC(c1ccccc1)N1CCCCC1)c1cc(O)c(O)c([N+](=O)[O-])c1 (stereo not shown) [Compound 3, 1-(3,4-Dihydroxy-5-nitro-phenyl)-3-phenyl-3-piperidin-1-yl-propan-1-one hydrochloride]
Duration of COMT inhibition and activity in the brain [1]: long acting COMT inhibitor with limited activity in the brain
Potency upon liver COMT compared with brain COMT [2]: much more potent upon liver COMT than brain COMT

Cl.O=C(CCN1CCCCC1)c1cc(O)c(O)c([N+](=O)[O-])c1 [Compound 2, 1-(3,4-Dihydroxy-5-nitro-phenyl)-3-piperidin-1-yl-propan-1-one hydrochloride]
Duration of COMT inhibition and activity in the brain [1]: long acting COMT inhibitor with limited activity in the brain
Potency upon liver COMT compared with brain COMT [2]: much more potent upon liver COMT than brain COMT

CC1CC(C)CN(CC(=O)c2cc(O)c(O)c([N+](=O)[O-])c2)C1.Cl (stereo not shown) [Compound 12, 1-(3,4-Dihydroxy-5-nitro-phenyl)-2-(3,5-dimethyl-piperidin-1-yl)-ethanone hydrochloride]
Brain COMT (% of control) 1 h [1]: 32.0 ± 2.0 % of control
Brain COMT (% of control) 6 h [1]: 84.0 ± 6.0 % of control

Cl.N#CC1(c2ccccc2)CCN(CCC(=O)c2cc(O)c(O)c([N+](=O)[O-])c2)CC1 [Compound 15, 1-[3-(3,4-Dihydroxy-5-nitro-phenyl)-3-oxo-propyl]-4-phenyl-piperidine-4-carbonitrile hydrochloride]
Brain COMT (% of control) 1 h [1]: 93.0 ± 9.0 % of control
Brain COMT (% of control) 6 h [1]: 122.0 ± 9.0 % of control
Liver COMT (% of control) 1 h [2]: 51.7 ± 5.9 % of control
Liver COMT (% of control) 6 h [2]: 37.9 ± 8.4 % of control
COMT activity (% of control) [3]: 2.9 ± 0.3 % of control

CCN(CC)C(C)C(=O)c1cc(O)c(O)c([N+](=O)[O-])c1.Cl (stereo not shown) [Compound 7, 2-Diethylamino-1-(3,4-dihydroxy-5-nitro-phenyl)-propan-1-one hydrochloride]
Brain COMT (% of control) 1 h [1]: 74.0 ± 12.0 % of control
Brain COMT (% of control) 6 h [1]: 126.0 ± 8.0 % of control
Liver COMT (% of control) 1 h [2]: 38.4 ± 2.8 % of control
Liver COMT (% of control) 6 h [2]: 57.1 ± 4.9 % of control
COMT activity (% of control) [3]: 9.0 ± 0.2 % of control

O=C(COc1ccc2ccccc2c1)c1cc(O)c(O)c([N+](=O)[O-])c1 [Compound 10, 1-(3,4-Dihydroxy-5-nitro-phenyl)-2-(naphthalen-2-yloxy)-ethanone]
Duration of COMT inhibition and activity in the brain [1]: long acting COMT inhibitor with limited activity in the brain
Potency upon liver COMT compared with brain COMT [2]: much more potent upon liver COMT than brain COMT

Cl.O=C(CC(c1ccccc1)N1CCOCC1)c1cc(O)c(O)c([N+](=O)[O-])c1 (stereo not shown) [Compound 5, 1-(3,4-Dihydroxy-5-nitro-phenyl)-3-morpholin-4-yl-3-phenyl-propan-1-one hydrochloride]
Potency upon liver COMT compared with brain COMT [2]: equally potent in inhibiting liver and brain COMT activity
